Results taken from patent US9018219B2, “Fused aminodihydropyrimidine derivative” (Shionogi & Co., Ltd., priority 2010, dated 2015).

Tests used:
[1] = target: T1, Recombinant human BACE-1 (Homo sapiens, UniProt P56817); assay: Assay of BACE1 inhibitory activity; assay type: biochemical; details: Recombinant human BACE1 7.4 nmol/L, substrate peptide 18 nmol/L, pH 5.0, 30° C. for 3 hours; read-out: IC50 (50% inhibitory concentration against the enzymatic activity)
T1 construct: purchased R&D Systems
T1 sequence (P56817 46-501): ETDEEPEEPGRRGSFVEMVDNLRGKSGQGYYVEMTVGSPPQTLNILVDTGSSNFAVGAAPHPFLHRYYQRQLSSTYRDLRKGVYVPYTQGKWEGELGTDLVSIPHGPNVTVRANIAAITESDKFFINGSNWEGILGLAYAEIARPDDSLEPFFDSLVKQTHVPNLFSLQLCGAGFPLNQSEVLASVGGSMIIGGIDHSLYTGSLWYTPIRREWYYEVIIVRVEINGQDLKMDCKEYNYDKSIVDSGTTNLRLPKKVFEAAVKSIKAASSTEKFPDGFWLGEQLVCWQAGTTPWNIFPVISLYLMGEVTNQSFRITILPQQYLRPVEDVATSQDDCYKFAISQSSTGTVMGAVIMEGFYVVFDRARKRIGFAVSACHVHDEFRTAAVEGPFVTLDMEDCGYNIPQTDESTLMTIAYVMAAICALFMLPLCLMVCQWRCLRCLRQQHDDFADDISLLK
Method: 48.5 μL of substrate peptide solution (Biotin-XSEVNLDAEFRHDSGC-Eu: X=ε-amino-n-capronic acid, Eu=Europium cryptate) was added to each well of 96-hole half-area plate (a black plate: Costar), and after addition of 0.5 μl of the compound of the present invention (N,N′-dimethylformamide solution) and 1 μl of Recombinant human BACE-1 (R&D Systems), the reaction mixture was incubated at 30° C. for 3 hours. The substrate peptide was synthesized by reacting Cryptate TBPCOOH mono SMP (CIS bio international) with Biotin-XSEVNLDAEFRHDSGC (Peptide Institute, Inc.). The final concentrations of the substrate peptide and Recombinant human BACE1 were adjusted to 18 nmol/L and 7.4 nmol/L, respectively, and the reaction was performed in sodium acetate buffer (50 mmol/L sodium acetate, pH 5.0, 0.008% Triton X-100). After the incubation for reaction, 50 μl of 8.0 μg/ml Streptavidin-XL665 (CIS bio international) dissolved in phosphate buffer (150 mmol/L K2HPO4—KH2PO4, pH 7.0, 0.008% Triton X-100, 0.8 mol/L KF) was added to each well and left stand at 30° C. for 1 hour. After then, fluorescence intensity was measured (excitation wavelength: 320 nm, measuring wavelength: 620 nm and 665 nm) using Wallac 1420 multilabel counter (Perkin Elmer life sciences). Enzymatic activity was determined from counting ratio of each wavelength (10,000×Count 665/Count 620) and 50% inhibitory concentration against the enzymatic activity (IC50) was calculated.

[2] = system: Neuroblastoma SH-SY5Y cells (SH/APPwt) with human wild-type β-APP excessively expressed; assay: Measurement of β-amyloid (Aβ) production inhibiting effect in cell; assay type: cell-based; details: 24 hours incubation, Amyloid β 1-40 HTRF in culture supernatant, read-out: IC50 (amount needed to inhibit Aβ production by 50%)
Method: Neuroblastoma SH-SY5Y cells (SH/APPwt) with human wild-type β-APP excessively expressed therein were prepared at 8×10^5 cells/mL, and 150 μl portions thereof were inoculated into each well of a 96-well culture plate (Falcon). The cells were cultured for 2 hours at 37° C. in a 5% gaseous carbon dioxide incubator. Then, a solution which have been preliminarily prepared by adding and suspending the compound of the present invention (DMSO (dimethyl sulfoxide) solution) so as to be 2 μl/50 μl medium was added to the cell sap. Namely, the final DMSO concentration was 1%, and the amount of the cell culture was 200 μl. After the incubation was performed for 24 hours from the addition of the test compound, 100 μl of the culture supernatant was collected from each fraction. The amount of the Aβ in each fraction was measured.
The Aβ amount was measured as follows. 10 μl of a homogeneous time resolved fluorescence (HTRF) measurement reagent (Amyloid β 1-40 peptide; IBA Molecular Holding, S.A.) and 10 μl of the culture supernatant were put into a 384-well half area microplate (black microplate, Costar) and mixed with each other, and then left standing overnight at 4° C. while the light was shielded. Then, the fluorescence intensity (excitation wavelength: 337 nm, measurement wavelength: 620 nm and 665 nm) was measured with Wallac 1420 multilabel counter (Perkin Elmer life sciences). The Aβ amount was determined from the count rate at each measurement wavelength (10000×Count 665/Count 620), and the amount needed to inhibit Aβ production by 50% (IC50) was calculated from at least six different dosages.

[3] = Solubility test (turbidity, Test Example 7-1); assay type: physicochemical; details: pH 6.8, aqueous buffer, kinetic from dmso stock; JP-II medium, 2% DMSO, turbidity after 4 hours; read-out: solubility assessed by 3 stages
Method: A 2-fold dilution series (12 points) of a 10 mM solution of a compound of the present invention in DMSO was added to a medium (JP-I, JP-II) (2%), and solubility was assessed by 3 stages (High; >40 μM, Medium; 3-40 Low; <3 μM) from a turbidity after 4 hours.

[4] = target: CYP3A4 (Homo sapiens, UniProt P08684); assay: CYP3A4 fluorescent MBI test; assay type: in vitro ADME; parameters: host or cells: Escherichia coli; details: 7-BFC substrate, pre-reaction 0 or 30 minutes, CYP3A4 expressed in Escherichia coli
Chain of CYP3A4 (P08684 whole entry): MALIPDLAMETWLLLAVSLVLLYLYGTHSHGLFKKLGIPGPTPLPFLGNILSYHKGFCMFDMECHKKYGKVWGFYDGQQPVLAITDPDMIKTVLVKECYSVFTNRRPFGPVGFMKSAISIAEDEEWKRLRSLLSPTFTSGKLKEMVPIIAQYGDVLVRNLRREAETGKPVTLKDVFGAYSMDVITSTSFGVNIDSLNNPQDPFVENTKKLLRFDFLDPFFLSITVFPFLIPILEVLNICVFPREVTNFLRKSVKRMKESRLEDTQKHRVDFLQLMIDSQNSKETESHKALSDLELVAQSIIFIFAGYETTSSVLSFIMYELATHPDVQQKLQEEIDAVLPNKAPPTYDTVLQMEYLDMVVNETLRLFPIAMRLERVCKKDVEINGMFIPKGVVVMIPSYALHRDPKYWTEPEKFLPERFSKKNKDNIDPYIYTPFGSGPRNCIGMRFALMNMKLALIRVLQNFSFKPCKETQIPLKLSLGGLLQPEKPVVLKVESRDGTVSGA
Method: The CYP3A4 fluorescent MBI test is a test of investigating enhancement of CYP3A4 inhibition of the compound of the present invention by a metabolism reaction. 7-benzyloxytrifluoromethylcoumarin (7-BFC) is debenzylated by the CYP3A4 enzyme (enzyme expressed in Escherichia coli) and a metabolite, 7-hydroxytrifluoromethylcoumarin (7-HFC) which emits fluorescent light is produced. The test is performed using 7-HFC production reaction as an index.
The reaction conditions are as follows: substrate, […] 7-BFC; pre-reaction time, 0 or 30 minutes; reaction time, 15 minutes; reaction temperature, 25° C. […]
An enzyme in a K-Pi buffer (pH 7.4) and the compound of the present invention solution as a pre-reaction solution were added to a 96-well plate at the composition of the pre-reaction, a part of it was transferred to another 96-well plate so that it was 1/10 diluted by a substrate in a K-Pi buffer, NADPH as a co-factor was added to initiate a reaction as an index (without preincubation) and, after a predetermined time of a reaction, acetonitrile/0.5 mol/L Tris (trishydroxyaminomethane)=4/1 was added to stop the reaction. […] For the plate on which each index reaction had been performed, a fluorescent value of 7-HFC which is a metabolite was measured with a fluorescent plate reader. […]

[5] = Brain distribution studies; assay type: in vivo; details: brain/plasma; rat, intravenous 0.5 mg/mL/kg, 30 minutes later; read-out: brain Kp value (area ratio brain/plasma)
Method: Compound of the present invention is intravenously administered to a rat at 0.5 mg/mL/kg dosage.
The brain is enucleated and 20-25% of homogenate thereof is prepared with distilled water.
The obtained blood is used as plasma after centrifuging. To the brain sample is added the control plasma at 1:1. To the plasma samples is added the control brains at 1:1. Each sample is measured using LC/MS/MS. The obtained area ratio (a brain/plasma) is used for the brain Kp value.

IC50 [1] [nM]	IC50 [2] [nM]	solubility at 4 h [3] [µM]	Kp at 0.5 h [5]	SMILES	CYP3A4 fluorescent MBI: difference between IC50 values without and with preincubation [4]
≤ 1000	≤ 1000	> 40	–	C[C@@]1(c2cc(NC(=O)c3ccc(C#N)cn3)ccc2F)Cc2nccn2C(N)=N1 [Compound I-1]	(−) (when the difference is 3 μM or less, this was defined as (−))
≤ 1000	≤ 1000	–	–	CC1(c2cc(NC(=O)c3ccc(C#N)cn3)ccc2F)Cc2cncn2C(N)=N1 (stereo not shown) [Compound I-6]	–
≤ 1000	≤ 1000	–	1.7	CC1(c2cc(-c3cccnc3F)ccc2F)Cc2cncn2C(N)=N1 (stereo not shown) [Compound I-7]	–

More lines, now with the values behind:

SMILES	IC50 [1] [nM]	IC50 [2] [nM]	solubility at 4 h [3] [µM]	Kp at 0.5 h [5]	CYP3A4 fluorescent MBI: difference between IC50 values without and with preincubation [4]
C[C@@]1(c2cc(NC(=O)c3ccc(C#N)cn3)ccc2F)Cc2ccnn2C(N)=N1 [Compound I-3]	36	3	–	–	–
CC#Cc1cncc(-c2csc([C@]3(C)Cc4nccn4C(N)=N3)c2)c1 [Compound I-4]	≤ 1000	≤ 1000	–	–	–
